Literature values as cited in US20090239807A1, “Methods and kits for diagnosing and/or assessing severity and treating gaucher disease” (priority 2004, published 2009).

Test system: rhodopsin P23H mutant
Details: cited from earlier work

Question: For 11-cis-7-ring retinal, which “rescue of rhodopsin P23H mutant” value is on record?
Answer: The value was “rescued”.
